According to patent US7041701B2, “Triterpenoid derivatives” (Univerzita Palackeho V Olomouci, priority 2000, dated 2006):

Assays:
[1] = tested on: OVCAR-3 human ovarian cancer; assay: MTT cytotoxicity assay, OVCAR-3; assay type: cell-based; details: 72 hours, read-out: TCS50
Source text: One of the parameters used as the basis for colorimetric assays is the metabolic activity of viable cells. For example, a microtiter assay which uses the tetrazolium salt MTT is now widely used to quantitate cell proliferation and cytotoxicity [Hajdúch M, Mihál V, Minarík J, Fáber E, Safárová M, Weigl E, Antálek P.: Cytotechnology, 1996, 19, 243–245]. For instance, this assay is used in drug screening programs and in chemosensitivity testing. Because tetrazolium salts are cleaved only by metabolically active cells, these assays exclusively detect viable cells. In the case of the MTT assay, yellow soluble tetrazolium salt is reduced to a coloured water-insoluble formazan salt. After it is solubilized, the formazan formed can easily and rapidly be quantified in a conventional ELISA plate reader at 570 nm (maximum absorbancy). The quantity of reduced formazan corresponds to the number of vital cells in the culture. […]
The cell suspensions that were prepared and diluted according to the particular cell type and the expected target cell density (2,500–30,000 cells per well based on cell growth characteristics) were added by pipette (80 μl) into 96/well microtiter plates. […] Usually, test compounds were evaluated at six 4-fold dilutions. […] The tumour cell survival (TCS) was calculated using the following equitation: TCS=(ODdrug exposed well/mean ODcontrol wells)×100%. […]

Rb protein = Rb protein phosphorylation state, SDS-PAGE/Western blot in CEM cells; assay type: cell-based, human
Description: Since Rb protein contains multiple phosphorylation sites for CDKs, its phosphorylated form has molecular weight about 110 kDa, while the molecular weight of hypophosphorylated protein is only 105 kDa This small difference in molecular weight is enough to separate both forms by conventional SDS-PAGE electrophoresis.
CEM cells were cultured in Dulbeco's modified essential medium with 4.5 g dextrose/l, 10% of foetal calf serum, 2 mM glutamine, 100 U/ml penicillin and 100 μg/ml streptomycin with/without below indicated concentrations of betulkic acid (BA) or I.3. At selected time points, cells were harvested, washed in ice cold Hank's balanced salt solution and solubilized on ice using the SDS-PAGE sample buffer containing protease and phosphatase inhibitors (10 μg/ml of leupeptin, 10 μg/ml of aprotinin, 10 μg/ml of soybean trypsin inhibitor, 100 μmol of benzamide, 1 mM of sodium vanadate, 1 mM of NaF, 1 mM of phenylphosphate) and boiled immediately.
Total cellular proteins (100 μg/well) were separated on SDS-PAGE electrophoresis, blotted on polyvinyldifluoride membranes and total Rb protein, including proteolytic fragment(s) were detected using a pRb monoclonal antibody (Oncogene, Germany, Rb(AS5), Cat# OP66 Rev 2 Sep. 1996 EB, Clone LM95.1) and visualized by chemilumniuscence (ECL-Westeg Blotting System, Amersham). Details of the Western blot technique are described in Ausubel, F. M., Brent, R., Kingston, P E., Moore, D. D., Seidman, J. G., Smith, J. A., Struhl, K (Eds): Short Protocols-in Molecular Biology, 2nd edition, John Wiley & Sons, New York, Chichester, Brisbane, Toronto, Singapore, 1992, page 10–33–10–35.

Question: Which results are given for CC(=O)OC[C@@]1(C(=O)O)CC[C@]2(C)[C@H](CC[C@@H]3[C@@]4(C)CC[C@H](OC(C)=O)C(C)(C)[C@@H]4CC[C@]32C)C1=O [I.3, 3β,28-diacetoxy-18-oxo-19,20,21,29,30-pentanorlupan-22-oic acid]?
Answer: IC50 [1]: 1000 nM; time to appearance of hypophosphorylated form of Rb (Rb protein; 7 μM): 2 h; time to appearance of hypophosphorylated form of Rb (Rb protein; 20 μM): 0.25 h; cleavage of Rb protein (42 kDa fragment, caspase activation) (Rb protein; Western blot): time and concentration dependent appearance of an immunoreactive fragment of Rb protein; dephosphorylation of Rb protein (shift 110 kDa to 105 kDa) (Rb protein; Western blot (FIG. 3)): rapidly dephosphorylated
